# Results: patent US10392398B2, “Inhibitors of Late SV40 Factor (LSF) as cancer chemotherapeutics” (TRUSTEES OF BOSTON UNIVERSITY, priority 2010, dated 2019)
# How the values were obtained:
# LBP1a/b = assay: Cellular Thermal Shift Assay (CETSA), LBP1a/b; assay type: binding; settings: QGY-7703 lysate, 500 μM
# Procedure: Drug-target engagement was assessed using CETSA as described by Molina et al. (Monitoring Drug-Target Engagement in Cells and Tissues Using Cellular Thermal Shift Assay. Science (2013) 341, 84-87). QGY-7703 cells were cultured at 37° C. in 5% CO2 in DMEM (Dulbecco's modification of Eagle's Medium; Corning) supplemented with 10% Fetal Bovine Serum (FBS; Invitrogen). Cells were seeded into 10 cm plates and allowed to reach 60-80% confluency. After trypsinization (0.05% Trypsin-EDTA, Invitrogen), cell pellet was washed twice with ice-cold 1×PBS (137 mM NaCl, 2.7 mM KCl, 10 mM Na2HPO4, 2 mM KH2PO4, pH 7.2). Cell pellet was lysed by addition of 200 μL freshly prepared ice-cold RIPA buffer (10 mM Tris-Cl pH 8.0, 1 mM EDTA, 0.5 mM EGTA, 1% Triton X-100, 0.1% sodium deoxycholate, 0.1% SDS, 140 mM NaCl) supplemented with 1 mM Pefabloc (Sigma-Aldrich), and flash frozen in liquid nitrogen and thawed for a total of three cycles. Cell lysate was centrifuged at 20,000×g for 20 minutes to clarify. Supernatant was either treated immediately or saved at −80° C. for future use. […]
# Immunoblots were quantified using Image J and graphed using GraphPad PRISM. Area-under-the-curve (AUC) for the quantified western blots were calculated with GraphPad PRISM and non-parametric t-test was calculated to determine statistical significance between the curves. […]
# HeLa cells = assay: Cell proliferation assay (MTS), HeLa; assay type: cell-based; settings: Homo sapiens
# Procedure: (§1) Cells were plated at 3×10^4 cells/mL, A549 and HeLa, and 1×10^4 cells/mL, NIH/3T3, in 96-well plates and incubated for 24 h to allow for cell adhesion. LSF-library compounds were dissolved in DMSO, serial diluted in appropriate medium and added to cells in triplicate (2 plates). DMSO was added to control wells at a final concentration of 1%. After 72 h incubation in the presence of compound, confluent cells were assayed for growth proliferation with CellTiter 96® AQueous One Solution Cell Proliferation Assay (MTS) (Promega) according to the manufacturer's protocol. Plates were read at 490 nm on a microplate reader, and IC50 values were determined as the percentage of compound-treated cell growth to control cell growth. HCC cells—one hour after plating HCC cells onto 96-well plates, compound or vehicle (DMSO) was added to the desired concentrations, keeping DMSO at 0.5%. At indicated time points, cell viability was assayed using the CellTiter 96® Non-Radioactive Cell Proliferation Assay (MTT) (Promega).
# QGY-7703 HCC cells = assay: HCC cell viability (MTT), QGY-7703; assay type: cell-based
# Procedure: as §1
# QGY-7703-derived tumors = assay: Subcutaneous xenograft model of HCC in mice; assay type: in vivo; settings: for growth of hepatocellular carcinoma in vivo: intraperitoneally once every 3 days, about 1.0-2.0 mg/kg
# Source text: The inventors, in collaboration with other scientists performed in vivo experiments in a subcutaneous xenograft model, where mice with small QGY-7703-derived tumors were given multiple, spaced intraperitoneal injections of FQI1 (Formula IV) over a 2 week period, followed by an additional 2-weeks prior to analysis. […] However, expression of osteopontin, whose gene is activated directly by LSF^8, was abolished by FQI1 treatment, as was expression of Ki-67, indicative of the replicative capacity of the tumors (data not shown). […] In contrast to the dramatic effects on tumor growth, no general toxicity was evident in the inhibitor-treated animals, as assayed by lack of changes in body weight, feeding, grooming, posture, and general behavior, as well as hematoxylin and eosin staining of multiple tissues (data not shown), and levels of liver enzymes and protein in the blood (data not shown).
# USF = assay: USF-dependent reporter assay; assay type: cell-based
# Procedure: USF-dependent reporter assays were performed with FQI1 only. Averages with standard deviation (SD) derive from 3-4 independent experiments. […] “−LSF”: translation extract with no programmed LSF. […] Myc-LSF-HA expression was induced with the small molecule inducer RSL1. In induced cells, FQI1 or vehicle was added for the final 12 h of myc-LSF-HA induction.
# HepG3 cells = assay: TUNEL apoptosis assay, HepG3; assay type: cell-based; settings: same conditions as QGY-7703
# Procedure: HCC cells were plated 24 h prior to incubation with FQI1. At the indicated time points, cells were analyzed using the FragEL™ DNA fragmentation kit (Calbiochem) according to the manufacturer's protocol. Flow cytometry was performed using a FACS caliber (Becton Dickinson) and analyzed with Cell Quest software.
# [1] = rats, single IV dose, 50 mg/mL dose level as printed
# Procedure for Rat tolerability: The purpose of the study was to determine the tolerability of FQI-34 in rats as administered by IV at 3 dose levels-5, 15, and 50 mg/kg. FQI-34 was formulated in 20% DMSO/50% PEG-400/30% saline, and administered by IV at 5 mL/kg for compound or 10 mL/kg for vehicle alone. 6 rats per dose arm were used (3 male and 3 female), with single dose administration with monitoring over 14 days. Gross necropsy was performed at the end of the study.
compound,measurement,setting,value
"CCOc1cc(N(C)C)ccc1C1CC(=O)Nc2cc3c(cc21)OCO3 (centres unmarked) [FQI-34, 8-(4-(dimethylamino)-2-ethoxyphenyl)-7,8-dihydro-[1,3]dioxolo[4,5-g]quinolin-6(5H)-one]",gross necropsy,"Rat tolerability; end of study, 14 days after single IV dose of 5, 15 or 50 mg/kg",no abnormal findings
same,condition of all rats for duration of study,"Rat tolerability; excluding the male rat B, 5, 15 and 50 mg/kg IV, 14 days",within normal limits
same,observations in all other rats at this dose level,"Rat tolerability; rats, single IV dose, 15 mg/mL dose as printed, 14 days",remained normal throughout the study
same,mortality,"Rat tolerability; rats, single IV dose, 15 mg/mL dose as printed, believed to be due to stress and not compound related",Male Rat B died
same,observations upon dosing,Rat tolerability; [1],"pronation, increased respiratory rate, and decreased activity"
same,time until rats returned to normal,Rat tolerability; [1],≤ 30 min
same,binding to LBP1a/b by CETSA,LBP1a/b,directly binds
"CCOc1ccccc1C1CC(=O)Nc2cc3c(cc21)OCO3 (racemic) [FQI1, 8-(2-ethoxyphenyl)-7,8-dihydro-[1,3]dioxolo[4,5-g]quinolin-6(5H)-one]",IC50,"HeLa cells; HeLa, Example 7, FIG. 8, read-out: growth inhibition of HeLa Cell Line IC50",790 ± 35 nM
same,GI50,"HeLa cells; 72 h, MTS",0.79 µM
same,effect of exogenous thymidine on treated cell viability profiles,"QGY-7703 HCC cells; QGY-7703, 20 μM thymidine",not affected
same,concentration at which decrease in HCC cell viability was observable,"QGY-7703 HCC cells; QGY-7703, between 24 and 48 hours",2 µM
same,cellular proliferation of QGY-7703 cells (MTT),QGY-7703 HCC cells; in words,decreased overall cellular proliferation
same,suppression of growth of HCC tumor size,"QGY-7703-derived tumors; about 1.0-2.0 mg/kg once every 3 days, versus untreated mice, data not shown",65-80%
same,general toxicity in inhibitor-treated animals,"QGY-7703-derived tumors; body weight, feeding, grooming, posture, behavior, H&E of tissues",not evident
same,expression of Ki-67 in endpoint tumors,QGY-7703-derived tumors; immunofluorescence,abolished
same,expression of osteopontin in endpoint tumors,QGY-7703-derived tumors; immunofluorescence,abolished
same,tumor growth in mouse xenograft,QGY-7703-derived tumors; in words,remarkable decrease in tumor growth
same,growth of hepatocellular carcinoma in vivo,"QGY-7703-derived tumors; in words, listed as formula (IV)",prevented or delayed the growth of hepatocellular carcinoma
same,growth of hepatocellular carcinoma in vivo,"QGY-7703-derived tumors; in words, listed as formula IV",effective at abrogating the growth of hepatocellular carcinoma in vivo
same,reduction of HCC tumor volume,"QGY-7703-derived tumors; mouse model, data not shown",about 80%
same,decrease in endpoint tumor volumes,"QGY-7703-derived tumors; multiple intraperitoneal injections over 2 weeks, analysis 2 weeks later, data not shown",~9 fold
same,transactivation of a USF-dependent reporter by USF,USF,unaffected
same,TUNEL positivity of HepG3 cells,HepG3 cells,not TUNEL-positive
